Values after ≈ are worked out from the molar mass of the structure shown.
Columns and labels:
Experiment in all cases: MIC, microdilution broth method (NCCLS)
Format in all cases: cell-based
Details in all cases: 35° C., 16-20 hours
E. coli OC2605 = tested on: E. coli OC2605
Outline: (§1)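 Two-fold serial drug dilutions in cation-adjusted Mueller-Hinton broth were inoculated with actively growing cultures to about 5×10^4 CFU/well. Trays were incubated 16-20 hours at 35° C. MIC was read by comparing growth against drug-free growth-control wells.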

E. faecalis ATCC29212 = tested on: E. faecalis ATCC29212
Outline: as §1

H. influenzae ATCC49247 = tested on: H. influenzae ATCC49247
Outline: as §1

S. aureus ATCC29213 = tested on: S. aureus ATCC29213
Outline: as §1

S. pneumoniae ATCC49619 = tested on: S. pneumoniae ATCC49619
Outline: as §1

SMILES	MIC (A: E. coli OC2605) (E. coli OC2605)	MIC (C: E. faecalis ATCC29212) (E. faecalis ATCC29212)	MIC (E: H. influenzae ATCC49247) (H. influenzae ATCC49247)	MIC (B: S. aureus ATCC29213) (S. aureus ATCC29213)	MIC (D: S. pneumoniae ATCC49619) (S. pneumoniae ATCC49619)
CC[C@H]1OC(=O)[C@H](C)C(=O)[C@H](C)[C@@H](O[C@@H]2O[C@H](C)C[C@H](N(C)C)[C@H]2O)[C@](C)(OC(=O)NNCc2ccc3ncccc3c2)C[C@@H](C)C(=O)[C@H](C)[C@H]2NC(=O)O[C@@]21C [Compound 661]	>16 µg/mL	0.12 µg/mL (≈ 0.15 µM)	2 µg/mL (≈ 2.51 µM)	0.5 µg/mL (≈ 0.627 µM)	0.03 µg/mL (≈ 0.0376 µM)
CCC1OC(=O)C(C)C(=O)C(C)C(OC2OC(C)CC(N(C)C)C2O)C(C)(OC(=O)OCC=Cc2ccccc2)CC(C)C(=O)C(C)C2NC(=O)OC12C (stereo not drawn) [Compound 6]	16 µg/mL (≈ 21.1 µM)	0.12 µg/mL (≈ 0.158 µM)	1 µg/mL (≈ 1.32 µM)	0.12 µg/mL (≈ 0.158 µM)	0.03 µg/mL (≈ 0.0395 µM)
CC[C@H]1OC(=O)[C@H](C)C(=O)[C@H](C)[C@@H](O[C@@H]2O[C@H](C)C[C@H](N(C)C)[C@H]2O)[C@](C)(OC(=O)NOCCc2ccccc2)C[C@@H](C)C(=O)[C@H](C)[C@H]2NC(=O)O[C@@]21C [Compound 611]	>16 µg/mL	0.5 µg/mL (≈ 0.656 µM)	8 µg/mL (≈ 10.5 µM)	2 µg/mL (≈ 2.62 µM)	0.12 µg/mL (≈ 0.157 µM)
CC[C@H]1OC(=O)[C@H](C)C(=O)[C@H](C)[C@@H](O[C@@H]2O[C@H](C)C[C@H](N(C)C)[C@H]2O)[C@](C)(OC(=O)NN(C)Cc2ccc(-c3ncccn3)cc2)C[C@@H](C)C(=O)[C@H](C)[C@H]2NC(=O)O[C@@]21C [Compound 774]	>16 µg/mL	0.25 µg/mL (≈ 0.298 µM)	4 µg/mL (≈ 4.77 µM)	2 µg/mL (≈ 2.38 µM)	0.06 µg/mL (≈ 0.0715 µM)
CC[C@H]1OC(=O)[C@H](C)C(=O)[C@H](C)[C@@H](O[C@@H]2O[C@H](C)C[C@H](N(C)C)[C@H]2O)[C@](C)(OC(=O)NN(C)CCc2ccc(-c3ncccn3)cc2)C[C@@H](C)C(=O)[C@H](C)[C@H]2NC(=O)O[C@@]21C [Compound 803]	>16 µg/mL	0.12 µg/mL (≈ 0.141 µM)	4 µg/mL (≈ 4.69 µM)	0.25 µg/mL (≈ 0.293 µM)	0.03 µg/mL (≈ 0.0352 µM)
CC[C@H]1OC(=O)[C@H](C)C(=O)[C@H](C)[C@@H](O[C@@H]2O[C@H](C)C[C@H](N(C)C)[C@H]2O)[C@](C)(OC(=O)SCCc2ccc(-c3ncccn3)cc2)C[C@@H](C)C(=O)[C@H](C)[C@H]2NC(=O)O[C@@]21C [Compound 835]		0.12 µg/mL (≈ 0.143 µM)	4 µg/mL (≈ 4.76 µM)	0.5 µg/mL (≈ 0.595 µM)	0.03 µg/mL (≈ 0.0357 µM)
CCC1OC(=O)C(C)C(=O)C(C)C(OC2OC(C)CC(N(C)C)C2O)C(C)(OC(=O)OCCCCc2ccc(-c3ncccn3)cc2)CC(C)C(=O)C(C)C2NC(=O)OC12C (stereo not drawn) [Compound 286]		0.25 µg/mL (≈ 0.293 µM)	4 µg/mL (≈ 4.69 µM)	0.25 µg/mL (≈ 0.293 µM)	0.06 µg/mL (≈ 0.0703 µM)
CCC1OC(=O)C(C)C(=O)C(C)C(OC2OC(C)CC(N(C)C)C2O)C(C)(OC(=O)OCCCn2cnc3ccccc32)CC(C)C(=O)C(C)C2NC(=O)OC12C (stereo not drawn) [Compound 159]		0.12 µg/mL (≈ 0.15 µM)	1 µg/mL (≈ 1.25 µM)	0.25 µg/mL (≈ 0.312 µM)	0.03 µg/mL (≈ 0.0375 µM)
CC[C@H]1OC(=O)[C@H](C)C(=O)[C@H](C)[C@@H](O[C@@H]2O[C@H](C)C[C@H](N(C)C)[C@H]2O)[C@](C)(OC(=O)SC/C=C/c2ccc(-c3ncccn3)cc2)C[C@@H](C)C(=O)[C@H](C)[C@H]2NC(=O)O[C@@]21C [Compound 833]		0.25 µg/mL (≈ 0.293 µM)	16 µg/mL (≈ 18.8 µM)	0.5 µg/mL (≈ 0.586 µM)	0.06 µg/mL (≈ 0.0703 µM)
CCC1OC(=O)C(C)C(=O)C(C)C(OC2OC(C)CC(N(C)C)C2O)C(C)(OC(=O)OCC=Cc2cnn(-c3ccccc3)c2)CC(C)C(=O)C(C)C2NC(=O)OC12C (stereo not drawn) [Compound 33]		0.12 µg/mL (≈ 0.145 µM)	1 µg/mL (≈ 1.21 µM)	0.25 µg/mL (≈ 0.303 µM)	0.06 µg/mL (≈ 0.0727 µM)
